Assay results as given in PubChem BioAssay (NCI).
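Growth conditions: 96-well plates. Treatment: test compound, 48 hours, 5 concentrations. Analysis: linear interpolation between bracketing concentrations; unreached endpoints set to highest concentration. GI50 is the concentration that inhibits growth by half. TGI marks complete inhibition of growth.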

Columns and labels:
Assay in all cases: DTP human tumour cell line panel, 48 h
ACHN renal = tested on: ACHN renal
HCT-15 colon = tested on: HCT-15 colon
A549 NSCLC = tested on: A549 NSCLC
SK-MEL-5 melanoma = tested on: SK-MEL-5 melanoma
HCC-2998 colon = tested on: HCC-2998 colon
SN12C renal = tested on: SN12C renal
MDA-MB-231 breast = tested on: MDA-MB-231 breast
SK-OV-3 ovarian = tested on: SK-OV-3 ovarian
EKVX NSCLC = tested on: EKVX NSCLC
SF-268 CNS = tested on: SF-268 CNS

Row | Compound | TGI (ACHN renal) [µM] | TGI (HCT-15 colon) [µM] | TGI (A549 NSCLC) [µM] | TGI (SK-MEL-5 melanoma) [µM] | TGI (HCC-2998 colon) [µM] | TGI (SN12C renal) [µM] | TGI (MDA-MB-231 breast) [µM] | TGI (SK-OV-3 ovarian) [µM] | TGI (EKVX NSCLC) [µM] | TGI (SF-268 CNS) [µM] | GI50 (ACHN renal) [µM] | GI50 (HCT-15 colon) [µM] | GI50 (A549 NSCLC) [µM] | GI50 (SK-MEL-5 melanoma) [µM] | GI50 (HCC-2998 colon) [µM] | GI50 (SN12C renal) [µM] | GI50 (MDA-MB-231 breast) [µM] | GI50 (SK-OV-3 ovarian) [µM] | GI50 (EKVX NSCLC) [µM] | GI50 (SF-268 CNS) [µM]
1 | CCC(C)C1(O)OC2CC3(C)OC(=CC3=O)/C(C)=C\C3OC(=O)C1(C)C32 (stereo not drawn) | 23.5 | 17.3 | > 100 | 23.1 | 30.1 | 28.6 | 41.2 | > 100 | 32.2 | > 100 | – | – | – | – | – | – | – | – | – | –
2 | O=C1O[C@]2(c3ccccc3)C(c3ccccc3)=C[C@]2(C(=O)c2ccccc2)C1=O | > 100 | > 100 | > 100 | > 100 | 39.2 | > 100 | 99.1 | > 100 | > 100 | > 100 | – | – | – | – | – | – | – | – | – | –
3 | Cc1ccc2nc(Cl)c(/C=N/N3C(=O)/C(=C/c4ccc(N(C)C)cc4)N=C3c3ccccc3)cc2c1 | > 100 | > 100 | > 100 | > 100 | > 100 | > 100 | > 100 | > 100 | > 100 | > 100 | – | – | – | – | – | – | – | – | – | –
4 | CC1(C)[C@@H]2C[C@H]1C(Cc1cccc(C[C@H]3c4cc(-c5ccccn5)ncc4[C@H]4C[C@@H]3C4(C)C)c1)c1cc(-c3ccccn3)ncc12 (stereo partly drawn) | > 100 | > 53 | > 100 | > 35.8 | > 100 | > 100 | > 100 | > 33.4 | > 46.8 | > 100 | 0.605 | – | – | – | – | – | – | – | – | –
5 | O=C(OCc1ccccc1)N1c2cc([N+](=O)[O-])ccc2C(=O)N2CCC[C@H]2C1O (stereo partly drawn) | > 100 | > 100 | > 100 | > 100 | > 100 | > 100 | > 100 | > 100 | > 100 | > 100 | – | – | – | – | – | – | – | – | – | –
6 | Nc1c(S(=O)(=O)O)cc(Nc2cccc(S(=O)(=O)/C=C/S(=O)(=O)O)c2)c2c1C(=O)c1ccccc1C2=O | > 100 | > 100 | > 100 | > 100 | > 100 | > 100 | > 100 | > 100 | > 100 | > 100 | – | – | – | – | – | – | – | – | – | –
7 | COc1cc2c(cc1Cl)n([O-])c(C#N)c(N1CCN(c3ccc([N+](=O)[O-])cc3)CC1)[n+]2=O | > 77.2 | > 100 | > 100 | > 59.6 | 78.8 | > 100 | > 100 | > 100 | > 100 | > 84 | – | – | – | – | – | – | – | – | – | –
8 | O=c1[nH]c2ccccc2c2oc(-c3ccccc3)nc12 | > 100 | > 100 | > 100 | > 100 | > 100 | 43.4 | 38.1 | > 100 | > 100 | 71.3 | – | – | – | – | – | – | – | – | – | –
9 | NCCCCNC1(c2cc3ccccc3s2)CCCCC1 | 23.2 | 17.7 | 20.5 | 3.63 | 3.1 | 25.1 | 11.4 | 28 | 29.1 | 13.5 | – | – | – | – | – | – | – | – | – | –
10 | Nc1nc2cc(CNc3ccc(C(=O)NC(CCC(=O)O)C(=O)O)cc3)ccc2nc1-c1ccccc1 (stereo not drawn) | > 10 | > 10 | > 10 | > 10 | > 10 | > 10 | > 10 | > 10 | > 10 | > 10 | – | – | – | – | – | – | – | – | – | –
11 | COc1cc(-c2nc3nc(N4CCN(C)CC4)ccc3[nH]2)c(OC)c2[nH]c(COC(C)=O)nc12 | > 100 | > 100 | > 100 | 35.6 | 30.6 | 98.8 | 63.6 | 82.1 | > 100 | > 100 | – | – | – | – | – | – | – | – | – | –
12 | O=C(Nc1cccc(-n2ccc3c(NC(=O)c4ccccc4)nccc32)c1)c1cc(N2CCOCC2)cc(C(F)(F)F)c1 | – | – | – | 0.249 | > 100 | > 100 | 0.651 | > 100 | > 100 | > 100 | 0.116 | 0.0395 | 0.142 | 0.0671 | 0.462 | 0.467 | 0.245 | 0.142 | 0.802 | 0.264
13 | CC(C)(C)OC(=O)NCC(=O)N1CCCN(C(=O)CNC(=O)OC(C)(C)C)CC1 | > 100 | > 100 | > 100 | > 100 | > 100 | > 100 | > 100 | > 100 | > 100 | > 100 | – | – | – | – | – | – | – | – | – | –
14 | CC(C)CCC/C(CBr)=C(\Cl)CCl | 23.3 | 11.4 | 31 | 6 | 21 | 8.85 | 8.34 | 22.3 | 30.3 | 9.89 | – | – | – | – | – | – | – | – | – | –
15 | O=C(C#Cc1cn(C2CC(O)C(CO)O2)c(=O)[nH]c1=O)c1ccccc1 (stereo not drawn) | > 100 | > 100 | > 100 | > 100 | > 100 | > 100 | > 100 | > 100 | > 100 | > 100 | – | – | – | – | – | – | – | – | – | –
16 | O=C(O)C1SCCS1 | > 100 | > 100 | > 100 | > 100 | > 100 | > 100 | > 100 | > 100 | > 100 | > 100 | – | – | – | – | – | – | – | – | – | –
17 | CC(=O)NC1=CC(=O)c2cc(C)cc(O)c2C1=O | 23 | 13.8 | 19 | 2.65 | 5.69 | 14.2 | 24.7 | > 83.5 | 31.7 | 22.6 | – | – | – | – | – | – | – | – | – | –
18 | CN(C)CCn1c(=O)c2ccc3c4c(nn3CCN(C)C)c3ccccc3n(c1=O)c24 | 0.765 | 1.39 | 4.38 | 1.42 | 0.534 | 1.59 | 1.96 | 3.43 | 0.112 | 5.12 | – | – | – | – | – | – | – | – | – | –
19 | COC(=O)CCN(CCC(=O)OC)C1CC1 | > 100 | > 100 | > 100 | > 100 | > 100 | > 100 | > 100 | > 100 | > 100 | > 100 | – | – | – | – | – | – | – | – | – | –
20 | COc1cc(C2S/C(=C/c3ccccc3)C(=O)N2c2cccc([N+](=O)[O-])c2)cc(OC)c1OC (stereo not drawn) | > 100 | > 100 | > 100 | > 100 | > 100 | > 100 | > 100 | > 100 | > 100 | > 100 | – | – | – | – | – | – | – | – | – | –
21 | C/C(N=Nc1nc2ccccc2o1)=C1/C=CC=CN1O | > 100 | > 100 | > 100 | > 100 | 24.5 | > 100 | > 100 | > 100 | 24.3 | > 100 | – | – | – | – | – | – | – | – | – | –
22 | COc1ccc2c(c1)-c1oc3ccccc3c(=O)c1CO2 | > 100 | > 100 | > 100 | 36.2 | > 100 | 77.9 | 90.8 | > 100 | > 100 | > 100 | – | – | – | – | – | – | – | – | – | –
23 | CS(=O)(=O)O.[Ag] | 16.8 | 36.5 | 33.8 | 18.3 | 28.8 | 38.7 | 41 | 36.4 | 38.4 | 39.7 | – | – | – | – | – | – | – | – | – | –
24 | CCOC(=O)N(C)C1(c2ccccc2)CCN(CCCC(=O)c2ccc(F)cc2)CC1 | > 100 | > 100 | > 100 | 31.3 | 42.3 | > 100 | > 100 | > 100 | > 100 | > 100 | – | – | – | – | – | – | – | – | – | –
25 | N#Cc1nc(/C=C/c2ccccc2)oc1N | > 100 | > 100 | > 100 | > 100 | > 100 | > 100 | > 100 | > 100 | > 100 | > 100 | – | – | – | – | – | – | – | – | – | –
26 | O=C(c1ccccc1)N1C(=S)N(c2ccc([N+](=O)[O-])cc2)C(=Nc2ccccc2)C1=Nc1ccccc1 | > 100 | > 100 | > 100 | > 100 | > 100 | > 100 | > 100 | > 100 | > 100 | > 100 | – | – | – | – | – | – | – | – | – | –
27 | CC(C)(NC1=NCCO1)c1ccccc1 | > 100 | > 100 | > 100 | > 100 | > 100 | > 100 | > 100 | > 100 | > 100 | > 100 | – | – | – | – | – | – | – | – | – | –
28 | O=C1C(N=Nc2ccc(-c3nc4ccccc4[nH]3)cc2)NC(=S)N1c1ccccc1 (stereo not drawn) | > 100 | 43.8 | > 100 | > 100 | 41.7 | > 100 | > 100 | > 100 | > 100 | > 100 | – | – | – | – | – | – | – | – | – | –
29 | CCOC(=O)C(NCc1cccc(C(F)(F)F)c1)(NC(=O)c1ccccc1)C(F)(F)F (stereo not drawn) | 79.5 | > 100 | > 100 | > 100 | > 100 | > 100 | 29.9 | > 100 | 83.9 | > 100 | – | – | – | – | – | – | – | – | – | –
